Two substances from patent publication US5556849A, “Ruthenium containing phthalocyanin photosensitizers” (priority 1991, dated 1996) can be followed below.

A short description of series [1]: Light absorption maxima and molar extinction coefficients. The format is physicochemical. On the procedure: (§1) Compounds according to the invention were assessed and characterised by their light absorption maxima, and their molar extinction coefficients according to conventional test procedures. Most of the compound were tested for their biological activity according to conventional test procedures in the art. The PC50 represents phototoxic concentration 50%. which is the concentration of compound when exposed to a light dose as described herein, causes a 50% reduction in cancer cell growth vs an untreated control population. The phototoxicity index. PI, is the ratio of the PC50 to the cytotoxic concentration 50%. where the growth is reduced by 50% without a light dose being given.

Series [2] relates to Adherent cells (HeLa RCA. SKOV OVCAR). Description: Phototoxicity (Light): 3H-thymidine incorporation in adherent cells after irradiation, with dark cytotoxicity for PI. It counts as cell-based. Here is the method: The media is removed and the cells washed three times with D-PBS. and then covered with D-PBS (200 μl ) and exposed to light from the same source used in the singlet oxygen assay.
This follows the procedure for phototoxicity except that the cells are never exposed to light. The assay is relative to a non-treated control.
as §1
PC50 is determined by a relatively simple in vitro assay on a cellular level, which is generally indicative of photosensitizing activity.
(Uptake of a labelled nucleoside into DNA is a usual measure of proliferation.)

The subject of series [3] is normal rat liver. Description: Photodynamic threshold dose in normal rat liver, depth of necrosis. It counts as in vivo, adult Wistat rats. On the procedure:
The photodynamic threshold dose in normal rat liver was used as a model. This has been developed by Singh and Wilson at McMaster University and used to study both chloroaluminum phthalocyanine sulfonate (ASPc) and photofrin (Patterson, M S, et at, Photochern Photobiol, 51,343-349, 1990, and Farrell, T J, et at, Proc SPIE1426, 146-155, 1991).
1. Inject compound at 2.5 mg/ml into tail vein of adult Wistat rats at doses of 5, 10.20 mg/kg.
2. 24 hours later expose liver by laparotomy and irradiate surface at up to four locations with a 5 mm diameter lightbeam from an argon-dye laser operating at 650 nm: incident power =40 m Watt: incident fluenee rate =200 mW cm^-2 : treatment time =5 or 10 minutes (60. 120 Joules cm^-2).
3. 24 hours later inject Evans Blue iv, sacrifice at 15 minutes, section Liver through each radiation spot and measure depth of necrosis as indicated by dye exclusion.

Series [4] is described as follows: Singlet oxygen generation by photo-degradation of nitrosoanaline dye. Conditions: 15 minutes of irradiation, 4° C.

Take “K2 [Ru(Pc)bis(triphenvlphosphine monosulfonate)]trihydrate [Compound A]”: in series [1], the “ε (molar extinction coefficient)” value amounted to 88200 M⁻¹ cm⁻¹. Also, in series [1] (in water (W)), the “λmax Q” value is 650. For the same substance, the “PI (phototoxicity index)” value in series [2] (ratio of PC50 to cytotoxic concentration 50% (no light)) was greater than 100. The IC50 in series [2] (with light dose, 50% reduction in cancer cell growth vs untreated control, 24 h incubation with sensitizer, read-out: PC50 (phototoxic concentration 50%)) is 1.14 µM. The “depths of necrosis compared with previously studied agents” value in series [3] (at similar drug and light levels, Photofrin and AlSPc given ip) was “comparable to those with previously studied agents”. Further, the “Depth of Necrosis” value in series [3] (dose 5 mg/kg iv, fluence 60 J cm^-2, 650 nm) is 1.86 ± 0.34 mm; in series [3] (dose 5 mg/kg iv, fluence 120 J cm^-2, 650 nm), 2.5 ± 0.0 mm; in series [3] (dose 10 mg/kg iv, fluence 60 J cm^-2, 650 nm), 2.16 ± 0.10 mm; in series [3] (dose 10 mg/kg iv, fluence 120 J cm^-2, 650 nm), 2.41 ± 0.16 mm; in series [3] (dose 20 mg/kg iv, fluence 60 J cm^-2, 650 nm) it was 1.66 ± 0.05 mm; in series [3] (dose 20 mg/kg iv, fluence 120 J cm^-2, 650 nm) it was 1.94 ± 0.04 mm. In series [3] (in words), the “photodynamic activity in vivo” value is given as “photodynamically active in vivo”.

Consider aluminium phthalocyanine sulphonate, for which the “rate of singlet oxygen production” value in series [4] is on record as “on the order of one or two logs better than some of the sensitizers listed”.
